Data reported in ChEMBL document CHEMBL5620362 (Eur J Med Chem, 2023).
Active and inactive are the calls of the source. The calls are words filed in the database; no cut-off is given here.

What was measured:
[1] = test system: HPAF-II; assay: Induction of apoptosis in human HPAF-II cells assessed as late apoptotic cells at 1 uM incubated for 48 hrs by Annexin V-FITC/PI staining based flow cytometry (reference value: 1.28 %); format: functional
[2] = test system: NCI-H23; assay: Induction of apoptosis in human NCI-H23 cells assessed as late apoptotic cells at 1 uM incubated for 48 hrs by Annexin V-FITC/PI staining based flow cytometry (reference value: 2.89 %); format: functional
[3] = Oral bioavailability in ICR mouse at 10 mg/kg; format: ADME, organism-based; settings: in vivo
[4] = test system: HPAF-II; assay: Inhibition of colony formation in human HPAF-II cells harboring siROR-gamma 0.1 uM incubated for 6 to 7 days by crystal violet staining based analysis; format: functional, cell-based; settings: time 6-7 day
[5] = test system: HPAF-II; assay: Induction of apoptosis in human HPAF-II cells assessed as viable cells at 10 uM incubated for 48 hrs by Annexin V-FITC/PI staining based flow cytometry (reference value: 89.73 %); format: functional; settings: read-out: Activity
[6] = test system: A549; assay: Anticancer activity against human A549 cells incubated for 72 hrs; format: functional, cell-based
[7] = test system: HPAF-II; assay: Downregulation of phosphorylated MEK expression in human HPAF-II cells at 0.1 to 1 uM incubated for 48 hrs by Western blot analysis; format: functional, cell-based; settings: dose 0.1-1 µM
[8] = test system: NCI-H23; assay: Induction of apoptosis in human NCI-H23 cells assessed as viable cells at 0.01 uM incubated for 48 hrs by Annexin V-FITC/PI staining based flow cytometry (reference value: 92.16 %); format: functional; settings: read-out: Activity
[9] = Clearance in ICR mouse at 3 mg/kg, iv; format: ADME, organism-based; settings: in vivo
[10] = test system: NCI-H23; assay: Anticancer activity against human NCI-H23 cells incubated for 72 hrs; format: functional, cell-based
[11] = test system: NCI-H23; assay: Induction of apoptosis in human NCI-H23 cells assessed as viable cells at 10 uM incubated for 48 hrs by Annexin V-FITC/PI staining based flow cytometry (reference value: 92.16 %); format: functional; settings: read-out: Activity
[12] = test system: HPAF-II; assay: Cytotoxicity against human HPAF-II cells harboring siROR-gamma assessed as decrease in cell viability at 0.1 uM incubated for 72 hrs by SRB assay; format: functional, cell-based
[13] = test system: NCI-H23; assay: Induction of apoptosis in human NCI-H23 cells assessed as early apoptotic cells at 0.1 uM incubated for 48 hrs by Annexin V-FITC/PI staining based flow cytometry (reference value: 4.17 %); format: functional
[14] = test system: HPAF-II; assay: Induction of apoptosis in human HPAF-II cells assessed as early apoptotic cells at 0.01 uM incubated for 48 hrs by Annexin V-FITC/PI staining based flow cytometry (reference value: 0.90 %); format: functional
[15] = test system: MIA PaCa-2; assay: Cytotoxicity against human MIA PaCa-2 cells harboring siROR-gamma assessed as decrease in cell viability at 0.1 uM incubated for 72 hrs by SRB assay; format: functional, cell-based
[16] = Cmax in ICR mouse at 10 mg/kg, po; format: ADME, organism-based; settings: in vivo
[17] = test system: HPAF-II; assay: Downregulation of ERK phosphorylation level in human HPAF-II cells harboring siROR-gamma at 0.1 uM by Western blot analysis; format: functional, cell-based
[18] = test system: HPAF-II; assay: Induction of apoptosis in human HPAF-II cells assessed as reduction in MCL-1 level at 0.1 to 1 uM incubated for 48 hrs by Western blot analysis; format: functional, cell-based; settings: dose 0.1-1 µM
[19] = Half life in ICR mouse at 3 mg/kg, iv; format: ADME, organism-based; settings: in vivo
[20] = test system: HPAF-II; assay: Induction of apoptosis in human HPAF-II cells assessed as early apoptotic cells at 10 uM incubated for 48 hrs by Annexin V-FITC/PI staining based flow cytometry (reference value: 0.90 %); format: functional
[21] = target: T1, Nuclear receptor ROR-gamma (Homo sapiens) (UniProt P51449); assay: Antagonist activity at Gal4-tagged ROR-gamma LBD (unknown origin) transfected in HEK293T cells assessed as reduction in luciferase activity at 0.1 to 1 uM incubated for 24 hrs by Renilla luciferase reporter gene assay; format: cell-based; settings: filed as antagonist, dose 0.1-1 µM
T1 sequence (whole entry): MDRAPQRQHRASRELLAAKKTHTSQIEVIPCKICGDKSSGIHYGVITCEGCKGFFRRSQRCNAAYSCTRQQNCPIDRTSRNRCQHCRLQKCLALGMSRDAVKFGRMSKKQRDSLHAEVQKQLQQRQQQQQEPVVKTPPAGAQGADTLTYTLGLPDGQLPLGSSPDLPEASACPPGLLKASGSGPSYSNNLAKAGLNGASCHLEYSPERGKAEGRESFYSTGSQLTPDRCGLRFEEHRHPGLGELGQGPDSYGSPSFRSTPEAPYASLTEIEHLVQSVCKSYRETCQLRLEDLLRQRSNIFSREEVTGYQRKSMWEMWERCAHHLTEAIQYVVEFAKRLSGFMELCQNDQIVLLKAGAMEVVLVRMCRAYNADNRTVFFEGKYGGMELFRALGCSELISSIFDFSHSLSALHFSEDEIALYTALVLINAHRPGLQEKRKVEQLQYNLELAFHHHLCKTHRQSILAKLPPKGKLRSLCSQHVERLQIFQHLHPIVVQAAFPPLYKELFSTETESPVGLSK

[22] = test system: HPAF-II; assay: Downregulation of MEK phosphorylation level in human HPAF-II cells harboring siROR-gamma at 0.1 uM by Western blot analysis; format: functional, cell-based
[23] = test system: NCI-H358; assay: Anticancer activity against human NCI-H358 cells incubated for 72 hrs; format: functional, cell-based
[24] = test system: MIA PaCa-2; assay: Anticancer activity against human MIA PaCa-2 cells incubated for 72 hrs; format: functional, cell-based
[25] = test system: HPAF-II; assay: Induction of apoptosis in human HPAF-II cells assessed as late apoptotic cells at 0.1 uM incubated for 48 hrs by Annexin V-FITC/PI staining based flow cytometry (reference value: 1.28 %); format: functional
[26] = test system: NCI-H23; assay: Induction of apoptosis in human NCI-H23 cells assessed as necrotic cells at 0.1 uM incubated for 48 hrs by Annexin V-FITC/PI staining based flow cytometry (reference value: 0.78 %); format: functional
[27] = Toxicity in nude Balb/cA mouse xenografted with human HPAF-II cells assessed as swelling at injection site at 15 mg/kg, ip qd measured for 12 days; format: organism-based; settings: in vivo, 288 h, time 12 day
[28] = test system: NCI-H23; assay: Induction of apoptosis in human NCI-H23 cells assessed as necrotic cells at 10 uM incubated for 48 hrs by Annexin V-FITC/PI staining based flow cytometry (reference value: 0.78 %); format: functional
[29] = test system: NCI-H23; assay: Induction of apoptosis in human NCI-H23 cells assessed as late apoptotic cells at 0.01 uM incubated for 48 hrs by Annexin V-FITC/PI staining based flow cytometry (reference value: 2.89 %); format: functional
[30] = test system: NCI-H23; assay: Induction of apoptosis in human NCI-H23 cells assessed as early apoptotic cells at 10 uM incubated for 48 hrs by Annexin V-FITC/PI staining based flow cytometry (reference value: 4.17 %); format: functional
[31] = test system: HPAF-II; assay: Downregulation of phosphorylated AKT expression in human HPAF-II cells at 0.1 to 1 uM incubated for 48 hrs by Western blot analysis; format: functional, cell-based; settings: dose 0.1-1 µM
[32] = test system: CFPAC-1; assay: Anticancer activity against human CFPAC-1 cells incubated for 72 hrs; format: functional, cell-based
[33] = test system: HPAF-II; assay: Downregulation of AKT phosphorylation level in human HPAF-II cells harboring siROR-gamma at 0.1 uM by Western blot analysis; format: functional, cell-based

bioavailability [3]: 16.8%
clearance [9]: 16.5 mL/min/kg
Cmax [16]: 114 ng/mL
half-life [19]: 4.5 h
Activity [21]: Active
SMILES: C=C(C)[C@@H]1CC[C@]2(C(=O)NCCCN(C)C)CC[C@]3(C)[C@H](CC[C@@H]4[C@@]5(C)CC[C@H](O)C(C)(C)[C@@H]5CC[C@]43C)[C@@H]12
Activity [1]: 20.27%
Activity [2]: 18.15%
inhibition [4]: inactive
viability at 10 µM [5]: 5.04%
Activity [6]: Active
Activity [7]: Active
viability at 0.01 µM [8]: 86.3%
Activity [10]: Active
viability at 10 µM [11]: 6.54%
Activity [12]: inactive
Activity [13]: 3.45%
Activity [14]: 5.34%
Activity [15]: inactive
Activity [17]: Active
Activity [18]: Active
Activity [20]: 48.86%
Activity [22]: Active
Activity [23]: Active
Activity [24]: Active
Activity [25]: 12.13%
Activity [26]: 4.71%
Activity [27]: Toxic
Activity [28]: 0.61%
Activity [29]: 6.78%
Activity [30]: 64.02%
Activity [31]: Active
Activity [32]: Active
Activity [33]: Active
